Columns and labels:
PC-3 (prostate cancer) = test: MTT antiproliferative assay, PC-3; format: cell-based; conditions: 48 h incubation
Experimental: (§1) Two series of new tetrahydropyridothienopyrimidines were evaluated for their cytotoxicity against a panel of cell lines, including MCF-7 (breast cancer), SW480 (colon cancer), PC-3 (prostate cancer), HEPG-2 (liver cancer) and HUVEC (human umbilical vein endothelial cell) using 3-(4,5-dimethyl- thiazol-2-yl)-2,5-diphenyltetrazolium bromide (MTT) assay. Sorafenib was used as a positive control. The cytotoxicity is expressed as the concentration that inhibits 50% of cell viability (IC50). […] The preliminary SAR is evaluated on the basis of cytotoxicity results of phenyl derivatives (11a–k) and pyridine derivatives (11l–11y).The mesomeric effect didn’t improve the cytotoxicity of compound 11d in the first series.
(§2) Cytotoxicity of the compounds was measured by detecting the ability of cells in transforming MTT into a purple formazan dye. The different cell lines were provided by the National Cell Bank of Iran (Pastor Institute, Tehran, Iran). The required materials and reagents were purchased from Sigma. After the cell culture in RPMI-1640 medium and DMEM containing 10% FBS (Gibco, Milano, Italy), the suspension of MCF-7 (7000) and other cells (5000) were poured into 96 well plates and incubated in a humidified incubator containing 5% CO2 at 37 °C for 24 h. Subsequently, a solution of the compounds in DMSO was added to these plates and incubated for 48 h. After incubation, the solution of 5% 3-(4,5-Dimethyl-2-thiazolyl)-2,5-diphenyl-2H-tetrazolium bromide (MTT) was added to all the wells and incubation was continued for another 4 h. The record of color intensity of the formazan solution was at 570 nm by Bio-Rad microplate reader (Model 680) which reflects the cell growth condition.

HEPG-2 (liver cancer) = test: MTT antiproliferative assay, HEPG-2; format: cell-based
Experimental: as §1, §2

[1] = tested on: HUVEC (human umbilical vein endothelial cell); test: MTT antiproliferative assay, HUVEC; format: cell-based; conditions: MTT assay, 48 h incubation
Experimental: as §1, §2

MCF-7 (breast cancer) = test: MTT antiproliferative assay, MCF-7; format: cell-based
Experimental: as §1, §2

SW480 (colon cancer) = test: MTT antiproliferative assay, SW480; format: cell-based
Experimental: as §1, §2

[2] = Homo sapiens, HepG2, 48 h incubation
[3] = Homo sapiens, MCF7, 48 h incubation
[4] = Homo sapiens, SW480, 48 h incubation

SMILES	IC50 (PC-3 (prostate cancer)) [µM]	IC50 (HEPG-2 (liver cancer); [2]) [µM]	IC50 ([1]; Homo sapiens, HUVEC) [µM]	melting point [°C]	IC50 (MCF-7 (breast cancer); [3]) [µM]	IC50 (SW480 (colon cancer); [4]) [µM]	IC50 (HEPG-2 (liver cancer); 48 h incubation) [µM]	IC50 [1] [µM]	IC50 (MCF-7 (breast cancer); 48 h incubation) [µM]	IC50 (SW480 (colon cancer); 48 h incubation) [µM]
O=C(Nc1ccc(F)cc1)Nc1nnc(Sc2ncnc3sc4c(c23)CCN(Cc2ccccc2)C4)s1 [Compound 11f, 1-(5-((7-benzyl-5,6,7,8-tetrahydropyrido[4',3':4,5]thieno[2,3-d]pyrimidin-4-yl)thio)-1,3,4-thiadiazol-2-yl)-3-(4-fluorophenyl)urea]	41.4 ± 0.46	30.7 ± 0.44	47.98 ± 0.27	166 to 168	45.04 ± 0.41	61.3 ± 2.02				
O=C(Nc1cccc(F)c1)Nc1nnc(Sc2ncnc3sc4c(c23)CCN(Cc2ccccc2)C4)s1 [Compound 11e, 1-(5-((7-benzyl-5,6,7,8-tetrahydropyrido[4',3':4,5]thieno[2,3-d]pyrimidin-4-yl)thio)-1,3,4-thiadiazol-2-yl)-3-(3-fluorophenyl)urea]	42.8 ± 1.82	9.84 ± 0.06	27.48 ± 0.07	144 to 146	13 ± 0.18	65.6 ± 1.74				
O=C(Nc1ccc(Cl)c(Cl)c1)Nc1nnc(Sc2ncnc3sc4c(c23)CCN(Cc2ccncc2)C4)s1 [Compound 11v, 1-(3,4-dichlorophenyl)-3-(5-((7-(pyridin-4-ylmethyl)-5,6,7,8-tetrahydropyrido[4',3':4,5]thieno[2,3-d]pyrimidin-4-yl)thio)-1,3,4-thiadiazol-2-yl)urea]	55.3 ± 1.82	26.4 ± 0.9	68.4 ± 1.44		10.37 ± 0.03	67.7 ± 1.55				
O=C(Nc1ccc(Cl)c(C(F)(F)F)c1)Nc1nnc(Sc2ncnc3sc4c(c23)CCN(Cc2ccncc2)C4)s1 [Compound 11y, 1-(4-chloro-3-(trifluoromethyl)phenyl)-3-(5-((7-(pyridin-4-ylmethyl)-5,6,7,8-tetrahydropyrido[4',3':4,5]thieno[2,3-d]pyrimidin-4-yl)thio)-1,3,4-thiadiazol-2-yl)urea]	4.37 ± 0.06	71.6 ± 3.24	57.1 ± 0.61	257 to 260	20.48 ± 0.11	45.69 ± 0.06				
O=C(Nc1nnc(Sc2ncnc3sc4c(c23)CCN(Cc2ccncc2)C4)s1)Nc1ccccc1Cl [Compound 11s, 1-(2-chlorophenyl)-3-(5-((7-(pyridin-4-ylmethyl)-5,6,7,8-tetrahydropyrido[4',3':4,5]thieno[2,3-d]pyrimidin-4-yl)thio)-1,3,4-thiadiazol-2-yl)urea]	8.94 ± 0.03	26.26 ± 0.24	6.87 ± 0.03	229 to 231	4.69 ± 0.09	30.5 ± 0.12				
O=C(Nc1cccc(C(F)(F)F)c1)Nc1nnc(Sc2ncnc3sc4c(c23)CCN(Cc2ccncc2)C4)s1 [Compound 11x, 1-(5-((7-(pyridin-4-ylmethyl)-5,6,7,8-tetrahydropyrido[4',3':4,5]thieno[2,3-d]pyrimidin-4-yl)thio)-1,3,4-thiadiazol-2-yl)-3-(3-(trifluoromethyl)phenyl)urea]	32.9 ± 0.61	44.6 ± 0.52	9.15 ± 0.02	241 to 243	9.36 ± 0.06	60.55 ± 0.41				
O=C(Nc1cccc(Cl)c1)Nc1nnc(Sc2ncnc3sc4c(c23)CCN(Cc2ccncc2)C4)s1 [Compound 11t, 1-(3-chlorophenyl)-3-(5-((7-(pyridin-4-ylmethyl)-5,6,7,8-tetrahydropyrido[4',3':4,5]thieno[2,3-d]pyrimidin-4-yl)thio)-1,3,4-thiadiazol-2-yl)urea]	3.02 ± 1.12	85 ± 3.4	67 ± 2.02		12.68 ± 0.05	14.6 ± 0.32				
Cc1ccc(NC(=O)Nc2nnc(Sc3ncnc4sc5c(c34)CCN(Cc3ccncc3)C5)s2)cc1Cl [Compound 11w, 1-(3-chloro-4-methylphenyl)-3-(5-((7-(pyridin-4-ylmethyl)-5,6,7,8-tetrahydropyrido[4',3':4,5]thieno[2,3-d]pyrimidin-4-yl)thio)-1,3,4-thiadiazol-2-yl)urea]	9.42 ± 0.63	38.5 ± 0.42	6.23 ± 0.03	157 to 159	6.8 ± 0.05	71.9 ± 1.1				
Cc1ccc(NC(=O)Nc2nnc(Sc3ncnc4sc5c(c34)CCN(Cc3ccccc3)C5)s2)cc1 [Compound 11c, 1-(5-((7-benzyl-5,6,7,8-tetrahydropyrido[4',3':4,5]thieno[2,3-d]pyrimidin-4-yl)thio)-1,3,4-thiadiazol-2-yl)-3-(p-tolyl)urea]	32.21 ± 0.3	24.6 ± 0.39	26.12 ± 0.15		42.87 ± 0.32	70.2 ± 2.71				
COc1cccc(NC(=O)Nc2nnc(Sc3ncnc4sc5c(c34)CCN(Cc3ccncc3)C5)s2)c1 [Compound 11o, 1-(3-methoxyphenyl)-3-(5-((7-(pyridin-4-ylmethyl)-5,6,7,8-tetrahydropyrido[4',3':4,5]thieno[2,3-d]pyrimidin-4-yl)thio)-1,3,4-thiadiazol-2-yl)urea]	33.6 ± 1.41	69.32 ± 0.52	20.6 ± 0.5	191 to 193	14.63 ± 0.07	65.8 ± 0.28				
O=C(Nc1ccc(Cl)c(C(F)(F)F)c1)Nc1nnc(Sc2ncnc3sc4c(c23)CCN(Cc2ccccc2)C4)s1 [Compound 11k, 1-(5-((7-benzyl-5,6,7,8-tetrahydropyrido[4',3':4,5]thieno[2,3-d]pyrimidin-4-yl)thio)-1,3,4-thiadiazol-2-yl)-3-(4-chloro-3-(trifluoromethyl)phenyl)urea]	23.15 ± 0.21	28.46 ± 0.25	37.56 ± 0.31		24.66 ± 0.24	63.5 ± 1.37				
Cc1ccc(NC(=O)Nc2nnc(Sc3ncnc4sc5c(c34)CCN(Cc3ccccc3)C5)s2)cc1Cl [Compound 11i, 1-(5-((7-benzyl-5,6,7,8-tetrahydropyrido[4',3':4,5]thieno[2,3-d]pyrimidin-4-yl)thio)-1,3,4-thiadiazol-2-yl)-3-(3-chloro-4-methylphenyl)urea]	41.8 ± 1.22	3.33 ± 0.07	24.63 ± 0.22		50.8 ± 0.54	69.6 ± 1.88				
O=C(Nc1ccc(Cl)cc1)Nc1nnc(Sc2ncnc3sc4c(c23)CCN(Cc2ccccc2)C4)s1 [Compound 11g, 1-(5-((7-benzyl-5,6,7,8-tetrahydropyrido[4',3':4,5]thieno[2,3-d]pyrimidin-4-yl)thio)-1,3,4-thiadiazol-2-yl)-3-(4-chlorophenyl)urea]	41.6 ± 1.1	46.96 ± 0.35	27.29 ± 0.19		62.4 ± 2.94	56.5 ± 1.28				
O=C(Nc1ccc(F)cc1)Nc1nnc(Sc2ncnc3sc4c(c23)CCN(Cc2ccncc2)C4)s1 [Compound 11r, 1-(4-fluorophenyl)-3-(5-((7-(pyridin-4-ylmethyl)-5,6,7,8-tetrahydropyrido[4',3':4,5]thieno[2,3-d]pyrimidin-4-yl)thio)-1,3,4-thiadiazol-2-yl)urea]	18.98 ± 0.11	67.5 ± 1.38	48.2 ± 0.62		5.69 ± 0.03	66.3 ± 1.24				
COc1ccc(NC(=O)Nc2nnc(Sc3ncnc4sc5c(c34)CCN(Cc3ccncc3)C5)s2)cc1 [Compound 11p, (4-Methoxyphenyl)-3-(5-((7-(pyridin-4-ylmethyl)-5,6,7,8-tetrahydropyrido[4',3':4,5]thieno[2,3-d]pyrimidin-4-yl)thio)-1,3,4-thiadiazol-2-yl)urea]	43.5 ± 1.62						67.4 ± 0.33	2.86 ± 0.05	3.72 ± 0.55	29.4 ± 1.01

— paper PMC9188586, “Design, synthesis and evaluation of novel tetrahydropyridothienopyrimidin-ureas as cytotoxic and anti-angiogenic agents” (Scientific Reports, 2022)
